Experimental data: patent US20170290882A1, “Specific Combined Therapy of Malignant Tumors with a Cytostatic and Its Modifier” (priority 2015, published 2017)

How the values were obtained:
[1] = tested on: P388 lymphoplastic leukemia; assay: Combined therapy DDP+GMDP-A in the P388 lymphoplastic leukemia model; type: in vivo, mice BDF1; conditions: late start (5th day); 10-fold GMDP-A 3.75 mg/kg s.c.; DDP, if given, single 4 mg/kg i.v.
Method: They were transplanted on the right-side surface of the animal body.
The animals with tumors were treated in test groups at the early (24 hours after tumor inoculation) and late (5 days after tumor inoculation) terms of the tumor growth using a single cytostatic injection intravenously in a dose equal to ½ or ¼ of therapeutic one and various schedules for GMDP-A injection: • Primary subcutaneous injection of GMDP-A modifier in a single dose 3.75 mg/kg; • Repeated protracted subcutaneous administration of GMDP-A modifier according to different schedules: 4-fold, 9-fold and 20-fold, once per day, in a single dose of 3.75 mg/kg (course dose is 18.75 mg/kg, 37.5 mg/kg and 78.75 mg/kg, correspondingly). Dosage frequency depends upon the model (histological form of transplanted tumor).
To identify efficiency of the claimed combined therapy, independent medication was carried out as a control after tumor inoculation using one component of binary therapy-cytostatic drug or a modifier. Cytostatic was injected intravenously in amount of ½ or ¼ of therapeutic dose once after 24 hours or 5 days after tumor inoculation; GMDP-A modifier was administered subcutaneously in a single dose of 3.75 mg/kg 5-fold from the 1st day to the 5th day or from the 5th day to the 9th day, or 10-fold from the 1st day to the 10th day or from the 5th day to the 14th day, or 21-fold from the 1st day to the 21st day after tumor inoculation.
Anti-tumor efficiency of the claimed combined therapy and comparative monotherapy using only a cytostatic or only GMDP-A modifier was assessed by the criteria commonly used in experimental oncology: tumor volume (TV), tumor growth inhibition (TGI), increase of the animal life time (ILT), tumor metastasis frequency (MF), metastasis inhibition rate (MI).
Efficiency of the combined therapy—chemotherapy with cisplatin cytostatic (DDP) and bioherapy with GMDP-A was assessed on P388 lymphoplastic leukemia model inoculated to mice BDF1, females, subcutaneously on the right-side body surface.
GMDP-A was administered to mice subcutaneously as a single dose of 3.75 mg/kg every day with different schedules: • Five-fold (total dose is 18.75 mg/kg) on the 1st day to the 5th day or on the 5th day to the 9th day after tumor inoculation; • Ten-fold (total dose is 37.5 mg/kg) on the 1st day to the 10th day or on the 5th day to the 14th day after tumor inoculation; • Twenty-one-fold (total dose is 78.75 mg/kg) on the 1st day to the 21st st day after tumor inoculation.
DDP (Cisplatin, Cisplatin Teva trade mark, manufacturer is Teva Pharmaceutical Industries Ltd., Israel, fabricated at Pharmachemie B.V., the Netherlands) was administered intravenously as a single dose ma 4 mg/kg (½ of therapeutic dose).

[2] = tested on: B16 melanoma; assay: Binary therapy DDP+GMDP-A in the B16 melanoma model; type: in vivo, BDF1 mice; conditions: for Tumor volume / tumor growth inhibition (TGI) / Average life time / ILT (increase of the animal life time) / Metastasis MF (tumor metastasis frequency) / Metastasis MI (metastasis inhibition rate): DDP, if given, single 4 mg/kg i.v.
[3] = at assumed therapeutic dose and at its five-fold excess; cited from earlier work
[4] = day 7, early start (1st day), 5-fold GMDP-A 3.75 mg/kg s.c.
[5] = day 7, early start (1st day), 10-fold GMDP-A 3.75 mg/kg s.c.
[6] = day 9, early start (1st day), 5-fold GMDP-A 3.75 mg/kg s.c.
[7] = day 9, early start (1st day), 10-fold GMDP-A 3.75 mg/kg s.c.
[8] = day 9, late start (5th day), 5-fold GMDP-A 3.75 mg/kg s.c.
[9] = day 9, late start (5th day), 10-fold GMDP-A 3.75 mg/kg s.c.
[10] = day 12, early start (1st day), 5-fold GMDP-A 3.75 mg/kg s.c.
[11] = day 12, early start (1st day), 10-fold GMDP-A 3.75 mg/kg s.c.
[12] = day 12, late start (5th day), 5-fold GMDP-A 3.75 mg/kg s.c.
[13] = day 12, late start (5th day), 10-fold GMDP-A 3.75 mg/kg s.c.
[14] = day 14, early start (1st day), 5-fold GMDP-A 3.75 mg/kg s.c.
[15] = day 14, early start (1st day), 10-fold GMDP-A 3.75 mg/kg s.c.
[16] = day 14, late start (5th day), 5-fold GMDP-A 3.75 mg/kg s.c.
[17] = day 14, late start (5th day), 10-fold GMDP-A 3.75 mg/kg s.c.
[18] = day 16, early start (1st day), 5-fold GMDP-A 3.75 mg/kg s.c.
[19] = day 16, early start (1st day), 10-fold GMDP-A 3.75 mg/kg s.c.
[20] = day 16, late start (5th day), 5-fold GMDP-A 3.75 mg/kg s.c.
[21] = day 16, late start (5th day), 10-fold GMDP-A 3.75 mg/kg s.c.
[22] = day 19, early start (1st day), 5-fold GMDP-A 3.75 mg/kg s.c.
[23] = day 19, early start (1st day), 10-fold GMDP-A 3.75 mg/kg s.c.
[24] = day 19, late start (5th day), 5-fold GMDP-A 3.75 mg/kg s.c.
[25] = day 19, late start (5th day), 10-fold GMDP-A 3.75 mg/kg s.c.
[26] = early start (1st day), 5-fold GMDP-A 3.75 mg/kg s.c.
[27] = early start (1st day), 10-fold GMDP-A 3.75 mg/kg s.c.
[28] = late start (5th day), 5-fold GMDP-A 3.75 mg/kg s.c.
[29] = late start (5th day), 10-fold GMDP-A 3.75 mg/kg s.c.

SMILES: CC(=O)NC1C(OC2C(CO)OC(O)C(NC(C)=O)C2OC(C)C(=O)NC(C)C(=O)NC(CCC(=O)O)C(=O)O)OC(CO)C(O)C1O [GMDP-A, N-acetyl-D-glucosaminyl-β-(1-4)-N-acetylmuramyl-L-alanyl-D-glutamic acid]
- ILT (increase of the animal life time) [1]: 0%
- Metastasis MF (tumor metastasis frequency) [1]: 100%
- Metastasis MI (metastasis inhibition rate) [1]: 8%
- Tumor volume [2, 4]: 11 ± 6 mm^3
- tumor growth inhibition (TGI) [2, 4]: 71%
- Tumor volume [2, 5]: 15 ± 6 mm^3
- tumor growth inhibition (TGI) [2, 5]: 62%
- Tumor volume [2, 6]: 58 ± 11 mm^3
- tumor growth inhibition (TGI) [2, 6]: 51%
- Tumor volume [2, 7]: 56 ± 9 mm^3
- tumor growth inhibition (TGI) [2, 7]: 52%
- Tumor volume [2, 8]: 61 ± 9 mm^3
- tumor growth inhibition (TGI) [2, 8]: 48%
- Tumor volume [2, 9]: 66 ± 14 mm^3
- tumor growth inhibition (TGI) [2, 9]: 44%
- Tumor volume [2, 10]: 177 ± 33 mm^3
- tumor growth inhibition (TGI) [2, 10]: 33%
- Tumor volume [2, 11]: 162 ± 21 mm^3
- tumor growth inhibition (TGI) [2, 11]: 38%
- Tumor volume [2, 12]: 173 ± 17 mm^3
- tumor growth inhibition (TGI) [2, 12]: 34%
- Tumor volume [2, 13]: 164 ± 29 mm^3
- tumor growth inhibition (TGI) [2, 13]: 37%
- Tumor volume [2, 14]: 347 ± 47 mm^3
- tumor growth inhibition (TGI) [2, 14]: 8%
- Tumor volume [2, 15]: 298 ± 44 mm^3
- tumor growth inhibition (TGI) [2, 15]: 21%
- Tumor volume [2, 16]: 329 ± 41 mm^3
- tumor growth inhibition (TGI) [2, 16]: 13%
- Tumor volume [2, 17]: 269 ± 62 mm^3
- tumor growth inhibition (TGI) [2, 17]: 29%
- Tumor volume [2, 18]: 522 ± 82 mm^3
- tumor growth inhibition (TGI) [2, 18]: 6%
- Tumor volume [2, 19]: 446 ± 53 mm^3
- tumor growth inhibition (TGI) [2, 19]: 20%
- Tumor volume [2, 20]: 391 ± 67 mm^3
- tumor growth inhibition (TGI) [2, 20]: 30%
- Tumor volume [2, 21]: 408 ± 79 mm^3
- tumor growth inhibition (TGI) [2, 21]: 27%
- Tumor volume [2, 22]: 690 ± 208 mm^3
- tumor growth inhibition (TGI) [2, 22]: 10%
- Tumor volume [2, 23]: 894 ± 99 mm^3
- tumor growth inhibition (TGI) [2, 23]: 16%
- Tumor volume [2, 24]: 817 ± 234 mm^3
- tumor growth inhibition (TGI) [2, 24]: 23%
- Tumor volume [2, 25]: 882 ± 238 mm^3
- tumor growth inhibition (TGI) [2, 25]: 17%
- Average life time [2, 26]: 21 ± 4 days
- ILT (increase of the animal life time) [2, 26]: 0%
- Metastasis MF (tumor metastasis frequency) [2, 26]: 80%
- Metastasis MI (metastasis inhibition rate) [2, 26]: 29%
- Average life time [2, 27]: 27 ± 4 days
- ILT (increase of the animal life time) [2, 27]: 29%
- Metastasis MF (tumor metastasis frequency) [2, 27]: 40%
- Metastasis MI (metastasis inhibition rate) [2, 27]: 81%
- efficiency for individual use (without chemotherapy) ([2]; example 2): did not reach a biologically significant level
- Average life time [2, 28]: 18 ± 3 days
- ILT (increase of the animal life time) [2, 28]: 0%
- Metastasis MF (tumor metastasis frequency) [2, 28]: 100%
- Metastasis MI (metastasis inhibition rate) [2, 28]: 5%
- Average life time [2, 29]: 24 ± 4 days
- ILT (increase of the animal life time) [2, 29]: 14%
- Metastasis MF (tumor metastasis frequency) [2, 29]: 100%
- Metastasis MI (metastasis inhibition rate) [2, 29]: 8%
- Toxic action (acute, chronic and specific toxicity) [3]: no toxic action
